Results from patent US4044043A, “Derivatives of 9-oxo-13-trans-prostenoic acid esters” (American Cyanamid Company, priority 1975, dated 1977).
Values after ≈ are worked out from the molar mass of the structure shown.

The compounds below were run on gastric acid secretion (assay: Inhibition of Gastric Acid Secretion (Pylorous-Ligated Rat), Shay rat procedure). Conditions: 100 mg./kg. intraduodenal, read-out: % Inhibition of Control Gastric Acid Secretion.
Type: in vivo, rats (male, CFE strain)
In short: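 Male CFE rats were fasted 48 h, then pylorus-ligated under ether. Gastric contents were titrated with 0.02N or 0.04N NaOH to pH 8.4 for acid output, and ≥20% inhibition counted as active.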

Row | Compound | inhibition in vivo at 100 mg/kg [%]
1 | CCC/C=C/[C@H]1CCC(=O)[C@@H]1CCCCCCC(=O)OCC (relative stereo) [ethyl 9-oxo-18,19,20-trinor-13-trans-prostenoate] | 94

Same assay, conditions: 100 mg./kg., 1 hr. pre-ligation, read-out: % Inhibition of Control Gastric Acid Secretion

Row | Compound | inhibition in vivo at 100 mg/kg [%]
2 | CCC/C=C/[C@H]1CCC(=O)[C@@H]1CCCCCCC(=O)OCC (relative stereo) [ethyl 9-oxo-18,19,20-trinor-13-trans-prostenoate] | 73

Same assay, conditions: sc, 8 mg./kg. subcutaneous, read-out: % Inhibition of Control Gastric Acid Secretion

Row | Compound | inhibition in vivo at 8 mg/kg [%]
3 | CCC/C=C/[C@H]1CCC(=O)[C@@H]1CCCCCCC(=O)OCC (relative stereo) [ethyl 9-oxo-18,19,20-trinor-13-trans-prostenoate] | 40

The compounds below were run on Mycobacterium smegmatis ATCC 606 (assay: agar-dilution streak-plate antimicrobial assay). Conditions: Mycolicibacterium smegmatis, ATCC606, read-out: Minimal inhibitory conc. (6).
Type: cell-based
In short: (§1)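 Test solutions at 2.5 mg/ml were two-fold serially diluted, and 1 ml of each was mixed into 9 ml warm nutrient agar, with bacterial and fungal media kept separate. Overnight broth cultures or saline spore suspensions were streaked by loop. MIC was the lowest concentration (µg/ml) giving complete visible growth inhibition.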

Row | Compound | MIC [µg/mL]
4 | O=C(O)CCCCCC[C@H]1C(=O)CC[C@@H]1/C=C/CCCCCCS (relative stereo) [20-mercapto-9-oxo-13-trans-prostenoic acid] | 125 (≈ 353 µM)
5 | CCCCCC/C=C/[C@H]1CCC(O)[C@@H]1CCCCC(=O)OCC (stereo partly drawn) [ethyl 9-hydroxy-6,7-dinor-13-trans-prostenoate] | 6 (≈ 18.5 µM)

Second part, the compound after the results:

Row | MIC [µg/mL] | Compound
6 | 62 (≈ 201 µM) | CCOC(=O)CCCCCC[C@H]1C(=O)CC[C@@H]1/C=C/C(C)C (relative stereo) [ethyl 15-methyl-9-oxo-17,18,19,20-tetranor-13-trans-prostenoate]
7 | 250 (≈ 810 µM) | CCC/C=C/[C@H]1CCC(=O)[C@@H]1CCCCCCC(=O)OCC (relative stereo) [ethyl 9-oxo-18,19,20-trinor-13-trans-prostenoate]
8 | 62 (≈ 143 µM) | CCOC(=O)CCCCCC[C@H]1C(=O)CC[C@@H]1/C=C/CCCI (relative stereo) [ethyl 20-iodo-9-oxo-17,18,19-trinor-13-trans-prostenoate]

These compounds were tested on Trichophyton mentagrophytes E 11 (assay: agar-dilution streak-plate antimicrobial assay). Conditions: E11, read-out: Minimal inhibitory conc. (4).
Type: cell-based
In short: as §1

Row | MIC [µg/mL] | Compound
9 | 250 (≈ 810 µM) | CCOC(=O)CCCCCC[C@H]1C(=O)CC[C@@H]1/C=C/C(C)C (relative stereo) [ethyl 15-methyl-9-oxo-17,18,19,20-tetranor-13-trans-prostenoate]
10 | 250 (≈ 810 µM) | CCC/C=C/[C@H]1CCC(=O)[C@@H]1CCCCCCC(=O)OCC (relative stereo) [ethyl 9-oxo-18,19,20-trinor-13-trans-prostenoate]
11 | 250 (≈ 576 µM) | CCOC(=O)CCCCCC[C@H]1C(=O)CC[C@@H]1/C=C/CCCI (relative stereo) [ethyl 20-iodo-9-oxo-17,18,19-trinor-13-trans-prostenoate]
12 | 250 (≈ 705 µM) | O=C(O)CCCCCC[C@H]1C(=O)CC[C@@H]1/C=C/CCCCCCS (relative stereo) [20-mercapto-9-oxo-13-trans-prostenoic acid]

The compounds below were run on Trichophyton tonsurans NIH 662 (assay: agar-dilution streak-plate antimicrobial assay). Conditions: NIH662, read-out: Minimal inhibitory conc. (3).
Type: cell-based
In short: as §1

Row | MIC [µg/mL] | Compound
13 | 250 (≈ 810 µM) | CCOC(=O)CCCCCC[C@H]1C(=O)CC[C@@H]1/C=C/C(C)C (relative stereo) [ethyl 15-methyl-9-oxo-17,18,19,20-tetranor-13-trans-prostenoate]
14 | 250 (≈ 576 µM) | CCOC(=O)CCCCCC[C@H]1C(=O)CC[C@@H]1/C=C/CCCI (relative stereo) [ethyl 20-iodo-9-oxo-17,18,19-trinor-13-trans-prostenoate]
15 | 250 (≈ 705 µM) | O=C(O)CCCCCC[C@H]1C(=O)CC[C@@H]1/C=C/CCCCCCS (relative stereo) [20-mercapto-9-oxo-13-trans-prostenoic acid]

Each compound was assayed on Streptococcus pyogenes C 203 (assay: agar-dilution streak-plate antimicrobial assay). Conditions: C203, read-out: Minimal inhibitory conc. (8).
Type: cell-based
In short: as §1

Row | MIC [µg/mL] | Compound
16 | 6 (≈ 16.9 µM) | O=C(O)CCCCCC[C@H]1C(=O)CC[C@@H]1/C=C/CCCCCCS (relative stereo) [20-mercapto-9-oxo-13-trans-prostenoic acid]
17 | 13 (≈ 40.1 µM) | CCCCCC/C=C/[C@H]1CCC(O)[C@@H]1CCCCC(=O)OCC (stereo partly drawn) [ethyl 9-hydroxy-6,7-dinor-13-trans-prostenoate]

These compounds were tested on Trichophyton rubrum E 97 (assay: agar-dilution streak-plate antimicrobial assay). Conditions: E97, read-out: Minimal inhibitory conc. (5).
Type: cell-based
In short: as §1

Row | MIC [µg/mL] | Compound
18 | 250 (≈ 810 µM) | CCOC(=O)CCCCCC[C@H]1C(=O)CC[C@@H]1/C=C/C(C)C (relative stereo) [ethyl 15-methyl-9-oxo-17,18,19,20-tetranor-13-trans-prostenoate]

What follows are compounds tested on Microsporum gypseum ATCC 14683 (assay: agar-dilution streak-plate antimicrobial assay). Conditions: Nannizzia gypsea, ATCC14683, read-out: Minimal inhibitory conc. (2).
Type: cell-based
In short: as §1

Row | MIC [µg/mL] | Compound
19 | 250 (≈ 810 µM) | CCOC(=O)CCCCCC[C@H]1C(=O)CC[C@@H]1/C=C/C(C)C (relative stereo) [ethyl 15-methyl-9-oxo-17,18,19,20-tetranor-13-trans-prostenoate]
20 | 125 (≈ 353 µM) | O=C(O)CCCCCC[C@H]1C(=O)CC[C@@H]1/C=C/CCCCCCS (relative stereo) [20-mercapto-9-oxo-13-trans-prostenoic acid]

What follows are compounds tested on Microsporum canis ATCC 10214 (assay: agar-dilution streak-plate antimicrobial assay). Conditions: ATCC10214, read-out: Minimal inhibitory conc. (1).
Type: cell-based
In short: as §1

Row | MIC [µg/mL] | Compound
21 | 250 (≈ 810 µM) | CCOC(=O)CCCCCC[C@H]1C(=O)CC[C@@H]1/C=C/C(C)C (relative stereo) [ethyl 15-methyl-9-oxo-17,18,19,20-tetranor-13-trans-prostenoate]
